Experimental data published in patent publication US20180116983A1, “COMPOUNDS FOR TREATING DISORDERS ASSOCIATED WITH BK CHANNEL MODULATION” (Canbex Therapeutics Limited, priority 2015, published 2018).
“Also recorded” adds a separate entry of the source.

Columns and labels:
KNCMA1 [1] = target: T1, KNCMA1 (Sus scrofa, UniProt O18866); assay: Whole-cell current in primary pig aortic endothelial cells; format: cell-based; conditions: no BK beta chains
T1 construct: endogenous in cells; host or cells: primary pig aortic endothelial cells
From the text: Pig aortic endothelial cells only express KNCMAI and not KNCMB1-4 (Papassotiriou et al). Thus, the absence of stimulation indicates a lack of effect on KNCMA1.

KNCMA1 [2] = target: T1, KNCMA1; assay: Inside-out patch clamp of pig aortic endothelial cells; format: cell-based
[3] = Intraocular pressure (IOP) after topical application; format: in vivo, rats; conditions: for IOP, mean: BL 11.18
Description: The effect of VSN16R on IOP was measured using the techniques described in the literature (Guo L. et aI, Investigative Ophthalmology & Visual Science, January 2005, Vol 46, No. 1 p 175-182; Guo L. et al, Investigative Ophthalmology & Visual Science, February 2006, Vol 47, No. 2 p 626-633; Cordeiro F. et al, PNAS, Aug. 14, 2007; Vol 104; No. 33, p 13444-13449; Cordeiro F. et al, PNAS, Sep. 7, 2004; Vol 101; No. 36, p 13352-13356).

[4] = target: T2, BKCa channels formed by the exon-less alpha subunit (Homo sapiens, UniProt Q12791); assay: Whole-cell BKCa current in HEK293 cells expressing the alpha subunit alone; format: cell-based; conditions: 20 μM
T2 construct: expressed in transfected cells; host or cells: HEK293

[5] = test system: C57BL/6.Fmr1 knockout mice; assay: Open field test in Fmr1 knockout mice; format: in vivo, mouse; conditions: 2 mg/kg i.v.
Description: Animals: C57BL/6.J. Fmr1-K02 mice, which have a deletion of the promoter and exonl of the Fmr1 gene (Mientjes et al., 2006) and C57BL/6J wild type (WT) were originated from the Jackson laboratory (Ann Harbor, USA). Mice were housed in groups (4-6 per cage) and all animals were provided with ad libitum food and water unless otherwise stated. Mice were maintained on a 12 h light/12 h dark cycle (lights off 19:00 to 7:00) in a temperature-controlled environment (21±1° C.). Testing was conducted in the light phase. Mice were housed in commercial cages and experiments were performed in line with the United Kingdom Animals (Scientific procedures) Act 1986. […]
Drug Treatment: VSN16R was dissolved in saline for injection intravenously via a tail vein using 2 mg/kg a 30 g needle in a volume of 0.1 ml. […] The eye condition (runny eyes or porphyria, ptosis), gait appearance, tremor, tail tone, reactivity to handling was assessed to detect adverse behavioural effect.
Open field: The open field apparatus was used to test multiple processes including anxiety/hyperactivity and habituation to a novel environment, in which decreased exploration as a function of repeated exposure to the same environment is taken as an index of memory. […] The number of squares entered (whole body) (locomotor activity) and rears (both front paws off the ground, but not as part of grooming) were counted. […]

[6] = Tolerability on repeated dosing; format: in vivo, mouse
Half-life by route = format: in vivo
mouse vas deferens = assay: βγ-methylene ATP-induced contraction of mouse vas deferens; conditions: 100 nM; electrically unstimulated vasa deferentia
Description: Mouse vas deferens were treated with either DMSO vehicle or 100 nM VSN16R 30 min before the first organ bath injection of various concentrations of βγ-methylene ATP into the organ bath (FIG. 16). The results represent the mean±SEM of βγ-methylene ATP-induced increases in tension (expressed in grams) of electrically unstimulated vasa deferentia. (n=6/group).

[7] = Known efficacious oral dose (model not stated); format: in vivo; conditions: p.o.
mesenteric arteries = conditions: cited from earlier work
BK channel = BK channel (Homo sapiens, UniProt Q12791); assay: Whole-cell patch clamp, BK current and membrane potential in EA.hy926 cells; format: cell-based; design: The human umbilical vein derived endothelial cell line, EA.hy926; endogenous in cells; host or cells: EA.hy926 human endothelial cell line
Description: The human umbilical vein derived endothelial cell line, EA.hy926 (Edgell et al., Proc Natl Acad Sci USA. 1983 June; 80(12): 3734-7) at passage >45 was grown in DMEM containing 10% FCS and 1% HAT (5 mM hypoxanthine, 20 μM aminopterin, 0.8 mM thymidine) and cells were maintained in an incubator at 37° C. in 5% CO2 atmosphere. Cells were plated on either 10 mm (for patch-clamp recordings) or 30 mm glass cover slips (for Ca^2+ measurements).
Membrane potential of EA.hy926 cells was recorded using the perforated patch clamp technique as described previously (Bondarenko et al, 2010, Br. J. Pharmacol. 161, 308-320). For membrane potential recordings from EA.hy926 cells the standard bath solution contained (in mM): 140 NaCl, 5 KCl, 1.2 MgCl2, 10 HEPES, 10 glucose, 2.4 CaCl2, patch pipettes were filled with a solution containing (in mmol/L): 140 KCl; 0.2 EGTA; 10 HEPES (pH adjusted to 7.2 using KOH). The resistance of the pipettes was 3-5 MΩ for whole cell and 6-8 MΩ for single channel recordings.

T2 sequence (Q12791 1-1178 isoform Q12791-5): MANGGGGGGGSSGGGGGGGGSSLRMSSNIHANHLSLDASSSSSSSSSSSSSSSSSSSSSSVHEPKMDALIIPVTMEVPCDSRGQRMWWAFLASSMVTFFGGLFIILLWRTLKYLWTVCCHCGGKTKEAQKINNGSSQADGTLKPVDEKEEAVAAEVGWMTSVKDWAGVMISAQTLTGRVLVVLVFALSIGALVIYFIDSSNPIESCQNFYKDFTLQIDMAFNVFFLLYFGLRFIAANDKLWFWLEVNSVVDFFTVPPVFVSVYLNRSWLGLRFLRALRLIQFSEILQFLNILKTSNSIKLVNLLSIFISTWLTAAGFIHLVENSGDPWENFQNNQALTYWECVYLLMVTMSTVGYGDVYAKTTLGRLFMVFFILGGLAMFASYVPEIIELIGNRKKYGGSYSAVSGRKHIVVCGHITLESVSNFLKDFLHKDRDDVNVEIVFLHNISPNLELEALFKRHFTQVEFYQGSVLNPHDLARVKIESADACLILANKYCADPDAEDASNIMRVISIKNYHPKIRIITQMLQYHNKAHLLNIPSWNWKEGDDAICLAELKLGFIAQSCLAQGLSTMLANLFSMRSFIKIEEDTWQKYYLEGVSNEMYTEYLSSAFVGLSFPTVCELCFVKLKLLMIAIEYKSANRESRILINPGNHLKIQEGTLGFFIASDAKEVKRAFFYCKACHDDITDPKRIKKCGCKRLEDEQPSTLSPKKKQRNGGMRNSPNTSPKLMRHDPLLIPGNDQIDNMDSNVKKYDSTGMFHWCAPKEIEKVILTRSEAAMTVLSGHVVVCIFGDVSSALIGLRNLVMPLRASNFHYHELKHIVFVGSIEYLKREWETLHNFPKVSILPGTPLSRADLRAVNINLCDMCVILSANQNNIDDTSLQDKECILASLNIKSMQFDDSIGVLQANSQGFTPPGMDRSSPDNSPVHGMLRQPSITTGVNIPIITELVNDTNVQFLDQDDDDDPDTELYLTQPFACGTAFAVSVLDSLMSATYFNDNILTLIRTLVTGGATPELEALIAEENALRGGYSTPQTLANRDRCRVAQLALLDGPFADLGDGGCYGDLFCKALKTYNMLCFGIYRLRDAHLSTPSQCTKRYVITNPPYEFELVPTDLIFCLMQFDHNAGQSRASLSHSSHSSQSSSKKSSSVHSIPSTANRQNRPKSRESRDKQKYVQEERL
BK channel, sequence (Q12791 1-1178 isoform Q12791-5): as above
BK channel, sequence (Q86W47 whole entry partner): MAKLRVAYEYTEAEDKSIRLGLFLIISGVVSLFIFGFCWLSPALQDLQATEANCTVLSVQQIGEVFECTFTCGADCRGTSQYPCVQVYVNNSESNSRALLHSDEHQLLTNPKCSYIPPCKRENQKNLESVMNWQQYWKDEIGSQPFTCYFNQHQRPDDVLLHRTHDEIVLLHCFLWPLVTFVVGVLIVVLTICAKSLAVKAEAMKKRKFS
T1 sequence (O18866 whole entry): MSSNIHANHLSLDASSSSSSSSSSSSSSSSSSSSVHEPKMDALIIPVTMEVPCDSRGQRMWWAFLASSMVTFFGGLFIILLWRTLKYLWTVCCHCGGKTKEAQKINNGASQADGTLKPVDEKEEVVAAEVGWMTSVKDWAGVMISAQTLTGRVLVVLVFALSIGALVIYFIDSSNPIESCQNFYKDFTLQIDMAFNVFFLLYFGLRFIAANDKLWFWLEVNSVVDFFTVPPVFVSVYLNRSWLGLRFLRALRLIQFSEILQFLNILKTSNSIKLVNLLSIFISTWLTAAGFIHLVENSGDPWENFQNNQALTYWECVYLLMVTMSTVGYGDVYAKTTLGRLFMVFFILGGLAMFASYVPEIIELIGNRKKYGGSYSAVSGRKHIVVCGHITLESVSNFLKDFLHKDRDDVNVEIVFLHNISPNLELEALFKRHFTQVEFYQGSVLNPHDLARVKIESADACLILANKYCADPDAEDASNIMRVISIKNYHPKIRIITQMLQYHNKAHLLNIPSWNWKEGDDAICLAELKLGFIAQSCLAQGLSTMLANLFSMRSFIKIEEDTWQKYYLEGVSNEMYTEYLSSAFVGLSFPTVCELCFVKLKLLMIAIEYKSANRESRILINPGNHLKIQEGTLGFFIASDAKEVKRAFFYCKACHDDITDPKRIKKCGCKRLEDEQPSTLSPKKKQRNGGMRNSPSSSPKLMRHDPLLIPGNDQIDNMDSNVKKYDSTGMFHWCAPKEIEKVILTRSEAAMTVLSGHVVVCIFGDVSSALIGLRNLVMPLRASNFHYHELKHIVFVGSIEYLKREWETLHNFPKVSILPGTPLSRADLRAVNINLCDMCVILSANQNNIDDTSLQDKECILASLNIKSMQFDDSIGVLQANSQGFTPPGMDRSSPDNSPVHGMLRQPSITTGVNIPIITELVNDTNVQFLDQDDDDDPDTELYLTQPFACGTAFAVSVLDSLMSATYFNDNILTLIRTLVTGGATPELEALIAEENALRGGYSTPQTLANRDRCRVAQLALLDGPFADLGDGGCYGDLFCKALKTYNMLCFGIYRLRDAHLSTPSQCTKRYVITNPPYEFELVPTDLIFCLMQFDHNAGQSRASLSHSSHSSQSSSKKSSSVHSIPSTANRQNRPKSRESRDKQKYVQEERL

C[C@H](CO)NC(=O)c1cccc(/C=C\CCCC(=O)N(C)C)c1 [VSN16R]
effect on current (KNCMA1 [1]): only a minor effect on current | response in inside-out patch (KNCMA1 [2]): does not give a response | IOP, mean ([3]; 0.5 h after VSN16R, p<0.05): 9.82 mmHg | IOP, mean ([3]; 1 h after VSN16R, not significant): 10.79 mmHg | effect on intraocular pressure ([3]; topical to the eye, normal rats): reduces intraocular pressure | enhancement of BKCa current ([4]; HEK293, steps −40 mV to +70 mV, 200 nM calcium): not responsive; also recorded: does not act on BKCa channels formed by the exon-less alpha subunit; also recorded: did not display any enhancing effect on the current; also recorded: did not affect the BKCa current at any voltage; also recorded: did not enhance BKCa currents | activation voltage / voltage-dependence of activation of BKCa current ([4]; intracellular calcium 1 μM, 200 nM, nominally 0 M): did not shift the voltage-depence of activation; also recorded: did not affect the activation voltage of BKCa current | open field activity (hyperactivity, memory) ([5]; Fmr1 knockout mice, baseline, 10 min, 24 h, 2 mg/kg): inhibits the hyperactivity and memory deficient; also recorded: movement behaviours were comparable to that observed in wildtype mice; also recorded: normalise the memory and exploratory behaviours to the level of wildtype mice | open field activity ([5]; wildtype mice): exhibit comparable movement behaviour to vehicle-treated wildtype mice | tolerability ([6]; 2 mg/kg i.v. over 2 weeks): well tolerated and no instances of toxicity were observed; also recorded: well tolerated | tolerable dose ([6]; daily, p.o.): ≥ 1000 mg/kg | t½ (Half-life by route; intravenous route): 6 min | half-life, oral route relative to intravenous route (Half-life by route; oral vs intravenous): 10 times | effect on βγ-methylene ATP-induced contraction (mouse vas deferens): does not affect | known efficacy dose [7]: ≥ 1 mg/kg | action on smooth muscle carrying the β1 subunit (mesenteric arteries): does not act on smooth muscle | membrane potential (BK channel; EA.hy926 cells): induces sustained hyperpolarisation | whole-cell BK current (BK channel; human EA.hy926 cells, current blocked by paxilline): induces a BKca specific current; also recorded: induces currents that are sensitive to paxilline
